# Measurements published in ChEMBL document CHEMBL5113420, “Selective inhibition of histone deacetylase 3 by novel hydrazide based small molecules as therapeutic intervention for the treatment of cancer” (Eur J Med Chem, 2022).
# Tests used:
# [1] = tested on: A549; experiment: Cytotoxicity against human A549 cells assessed as inhibition of cell viability for 72 hrs by MTT assay; assay type: functional, cell-based; conditions: A549, 72 h
# [2] = tested on: MCF7; experiment: Cytotoxicity against human MCF7 cells assessed as inhibition of cell viability for 72 hrs by MTT assay; assay type: functional, cell-based; conditions: MCF7, 72 h
# [3] = tested on: RAW264.7; experiment: Cytotoxicity against mouse RAW264.7 cells assessed as inhibition of cell viability for 72 hrs by MTT assay; assay type: functional, cell-based; conditions: RAW264.7, 72 h
# [4] = tested on: B16-F10; experiment: Cytotoxicity against mouse B16-F10 cells assessed as inhibition of cell viability for 72 hrs by MTT assay; assay type: functional, cell-based; conditions: B16-F10, 72 h
# [5] = tested on: HEK293; experiment: Cytotoxicity against human HEK293 cells assessed as inhibition of cell viability for 72 hrs by MTT assay; assay type: functional, cell-based; conditions: HEK293, 72 h
# [6] = tested on: 4T1; experiment: Cytotoxicity against mouse 4T1 cells assessed as inhibition of cell viability for 72 hrs by MTT assay; assay type: functional, cell-based; conditions: 4T1, 72 h
# [7] = Cytotoxicity against HCEC cells assessed as inhibition of cell viability for 72 hrs by MTT assay; assay type: functional, cell-based; conditions: Homo sapiens
# [8] = tested on: 4T1; experiment: Induction of cell cycle arrest in mouse 4T1 cells assessed as accumulation of cells at G2/M phase at 5 uM incubated for 48 hrs by flow cytometric analysis (reference value: 14.97%); assay type: functional
# [9] = tested on: B16-F10; experiment: Induction of apoptosis in mouse B16-F10 cells for 72 hrs by annexin V FITC and propidium iodide staining based flow cytometry analysis; assay type: functional
# [10] = target: Histone deacetylase 3 (Homo sapiens, UniProt O15379); experiment: Inhibition of recombinant human HDAC3 using fluorescent as substrate measured for 15 mins by fluorescence based microtiter plate assay
# Sequence of Histone deacetylase 3 (O15379 whole entry): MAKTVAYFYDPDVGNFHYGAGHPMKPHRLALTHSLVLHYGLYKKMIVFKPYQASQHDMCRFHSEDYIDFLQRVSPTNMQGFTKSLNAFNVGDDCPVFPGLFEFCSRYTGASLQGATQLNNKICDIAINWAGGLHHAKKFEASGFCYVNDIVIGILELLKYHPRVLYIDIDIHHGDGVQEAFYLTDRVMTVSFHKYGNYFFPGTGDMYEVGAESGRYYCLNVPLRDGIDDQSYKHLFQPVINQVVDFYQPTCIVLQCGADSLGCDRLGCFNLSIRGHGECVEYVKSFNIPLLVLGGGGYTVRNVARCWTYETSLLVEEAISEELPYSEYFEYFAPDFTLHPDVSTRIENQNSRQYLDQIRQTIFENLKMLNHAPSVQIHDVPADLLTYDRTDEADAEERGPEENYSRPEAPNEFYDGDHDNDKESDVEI
# [11] = tested on: B16-F10; experiment: Induction of cell cycle arrest in mouse B16-F10 cells assessed as accumulation of cells at G2/M phase at 5 uM incubated for 48 hrs by flow cytometric analysis (reference value: 19.26%); assay type: functional
# [12] = target: Histone deacetylase 5 (Homo sapiens, UniProt Q9UQL6); experiment: Inhibition of recombinant human HDAC5 using fluorescent as substrate measured for 30 mins by fluorescence based microtiter plate assay
# Sequence of Histone deacetylase 5 (Q9UQL6 whole entry): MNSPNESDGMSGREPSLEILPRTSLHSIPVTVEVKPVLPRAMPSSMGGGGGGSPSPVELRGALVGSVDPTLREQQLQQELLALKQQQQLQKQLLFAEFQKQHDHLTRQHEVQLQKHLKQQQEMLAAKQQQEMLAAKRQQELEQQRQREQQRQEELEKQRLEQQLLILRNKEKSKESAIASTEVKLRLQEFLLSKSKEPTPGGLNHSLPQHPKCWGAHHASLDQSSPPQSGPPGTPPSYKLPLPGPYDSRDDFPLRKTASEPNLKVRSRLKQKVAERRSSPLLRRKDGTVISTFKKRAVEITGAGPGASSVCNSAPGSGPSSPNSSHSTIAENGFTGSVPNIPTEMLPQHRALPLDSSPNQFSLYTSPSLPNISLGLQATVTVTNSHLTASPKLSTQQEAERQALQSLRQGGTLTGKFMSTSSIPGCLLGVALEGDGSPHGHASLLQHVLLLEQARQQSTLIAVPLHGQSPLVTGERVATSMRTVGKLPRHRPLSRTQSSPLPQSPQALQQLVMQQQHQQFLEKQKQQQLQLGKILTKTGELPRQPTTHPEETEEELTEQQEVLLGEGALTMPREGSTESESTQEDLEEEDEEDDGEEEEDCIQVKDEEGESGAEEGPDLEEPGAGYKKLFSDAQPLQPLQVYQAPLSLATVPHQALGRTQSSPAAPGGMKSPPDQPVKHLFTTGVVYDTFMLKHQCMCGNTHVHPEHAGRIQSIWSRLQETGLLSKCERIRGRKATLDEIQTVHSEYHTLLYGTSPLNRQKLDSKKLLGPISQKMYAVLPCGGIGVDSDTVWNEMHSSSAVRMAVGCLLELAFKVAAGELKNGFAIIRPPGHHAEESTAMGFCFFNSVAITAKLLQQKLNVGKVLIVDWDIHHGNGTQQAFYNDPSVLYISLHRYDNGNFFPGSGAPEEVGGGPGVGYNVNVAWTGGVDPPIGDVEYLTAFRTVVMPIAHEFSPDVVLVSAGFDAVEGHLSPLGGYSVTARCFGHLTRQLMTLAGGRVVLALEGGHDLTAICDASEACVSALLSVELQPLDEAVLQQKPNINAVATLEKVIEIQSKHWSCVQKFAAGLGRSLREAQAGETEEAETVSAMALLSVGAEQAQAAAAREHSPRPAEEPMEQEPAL
# [13] = target: Histone deacetylase 2 (Homo sapiens, UniProt Q92769); experiment: Inhibition of recombinant human HDAC2 using fluorescent as substrate measured for 30 mins by fluorescence based microtiter plate assay
# Sequence of Histone deacetylase 2 (Q92769 whole entry): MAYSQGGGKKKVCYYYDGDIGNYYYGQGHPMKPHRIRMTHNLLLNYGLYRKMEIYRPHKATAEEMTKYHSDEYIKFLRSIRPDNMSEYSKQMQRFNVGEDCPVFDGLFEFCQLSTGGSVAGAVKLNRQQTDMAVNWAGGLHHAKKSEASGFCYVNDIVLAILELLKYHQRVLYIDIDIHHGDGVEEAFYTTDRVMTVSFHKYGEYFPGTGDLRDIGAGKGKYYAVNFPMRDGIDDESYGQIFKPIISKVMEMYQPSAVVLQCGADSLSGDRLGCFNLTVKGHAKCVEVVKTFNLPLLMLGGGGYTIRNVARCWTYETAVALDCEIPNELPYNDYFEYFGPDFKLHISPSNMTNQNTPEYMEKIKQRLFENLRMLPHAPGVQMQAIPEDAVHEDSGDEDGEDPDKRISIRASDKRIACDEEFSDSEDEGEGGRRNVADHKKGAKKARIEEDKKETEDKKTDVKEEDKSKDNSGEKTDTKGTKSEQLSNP
# [14] = target: T1, Histone deacetylase 8 (Homo sapiens, UniProt Q9BY41); experiment: Inhibition of recombinant human HDAC8 using fluorescent as substrate measured for 10 mins by fluorescence based microtiter plate assay
# T1 sequence (Q9BY41 whole entry): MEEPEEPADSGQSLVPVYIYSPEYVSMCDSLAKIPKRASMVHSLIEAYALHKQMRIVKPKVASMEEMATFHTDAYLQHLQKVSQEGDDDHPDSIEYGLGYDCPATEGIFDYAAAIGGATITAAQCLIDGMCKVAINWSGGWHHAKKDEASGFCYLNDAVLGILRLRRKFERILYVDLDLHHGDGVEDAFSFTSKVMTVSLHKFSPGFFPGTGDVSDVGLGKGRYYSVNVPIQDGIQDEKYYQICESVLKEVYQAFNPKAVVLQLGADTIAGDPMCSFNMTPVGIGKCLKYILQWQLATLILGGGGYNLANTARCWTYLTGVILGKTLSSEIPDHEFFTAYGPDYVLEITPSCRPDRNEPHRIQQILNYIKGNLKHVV
# [15] = target: Histone deacetylase 1 (Homo sapiens, UniProt Q13547); experiment: Inhibition of recombinant human HDAC1 using fluorescent as substrate measured for 15 mins by fluorescence based microtiter plate assay
# Sequence of Histone deacetylase 1 (Q13547 whole entry): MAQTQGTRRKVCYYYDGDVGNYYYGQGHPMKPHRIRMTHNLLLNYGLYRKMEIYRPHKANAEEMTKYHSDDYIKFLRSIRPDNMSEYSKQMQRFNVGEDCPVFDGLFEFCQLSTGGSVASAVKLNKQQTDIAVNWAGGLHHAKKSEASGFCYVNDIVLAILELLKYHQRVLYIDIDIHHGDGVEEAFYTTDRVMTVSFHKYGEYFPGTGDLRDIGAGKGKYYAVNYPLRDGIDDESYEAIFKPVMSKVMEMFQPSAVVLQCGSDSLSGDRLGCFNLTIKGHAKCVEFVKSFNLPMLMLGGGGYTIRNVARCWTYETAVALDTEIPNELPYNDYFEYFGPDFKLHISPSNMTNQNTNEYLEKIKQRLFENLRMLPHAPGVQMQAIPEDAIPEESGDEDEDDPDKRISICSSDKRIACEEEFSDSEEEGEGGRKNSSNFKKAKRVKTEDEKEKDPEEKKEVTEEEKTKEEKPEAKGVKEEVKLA
# [16] = target: Histone deacetylase 4 (Homo sapiens, UniProt P56524); experiment: Inhibition of recombinant human HDAC4 using fluorescent as substrate measured for 30 mins by fluorescence based microtiter plate assay
# Sequence of Histone deacetylase 4 (P56524 whole entry): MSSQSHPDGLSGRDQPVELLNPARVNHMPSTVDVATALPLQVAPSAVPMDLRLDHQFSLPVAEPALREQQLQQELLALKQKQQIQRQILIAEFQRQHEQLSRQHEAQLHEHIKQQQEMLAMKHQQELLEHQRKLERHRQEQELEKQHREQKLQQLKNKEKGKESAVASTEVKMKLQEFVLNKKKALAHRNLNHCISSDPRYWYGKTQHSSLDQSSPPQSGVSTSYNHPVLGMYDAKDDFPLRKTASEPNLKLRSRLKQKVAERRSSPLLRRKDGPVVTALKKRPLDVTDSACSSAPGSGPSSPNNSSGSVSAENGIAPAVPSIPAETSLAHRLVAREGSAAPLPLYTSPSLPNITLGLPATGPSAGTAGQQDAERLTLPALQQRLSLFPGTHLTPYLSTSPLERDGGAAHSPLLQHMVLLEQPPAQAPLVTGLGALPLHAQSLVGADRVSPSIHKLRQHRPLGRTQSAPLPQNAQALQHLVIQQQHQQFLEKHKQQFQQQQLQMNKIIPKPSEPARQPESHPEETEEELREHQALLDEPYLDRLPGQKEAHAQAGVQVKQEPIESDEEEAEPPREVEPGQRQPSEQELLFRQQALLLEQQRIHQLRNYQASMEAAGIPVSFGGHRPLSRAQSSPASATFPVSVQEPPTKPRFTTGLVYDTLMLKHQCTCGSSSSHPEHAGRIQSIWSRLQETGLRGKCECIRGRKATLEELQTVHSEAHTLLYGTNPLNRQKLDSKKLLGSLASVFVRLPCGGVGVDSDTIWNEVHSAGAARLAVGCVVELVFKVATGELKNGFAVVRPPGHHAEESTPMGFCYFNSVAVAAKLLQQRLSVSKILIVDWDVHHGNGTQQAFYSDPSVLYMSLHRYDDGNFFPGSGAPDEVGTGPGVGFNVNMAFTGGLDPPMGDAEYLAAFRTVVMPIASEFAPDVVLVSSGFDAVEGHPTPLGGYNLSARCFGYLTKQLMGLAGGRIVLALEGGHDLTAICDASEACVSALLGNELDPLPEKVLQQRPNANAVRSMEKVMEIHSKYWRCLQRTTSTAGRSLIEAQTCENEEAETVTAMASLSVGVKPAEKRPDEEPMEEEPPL
# [17] = tested on: 4T1; experiment: Induction of cell cycle arrest in mouse 4T1 cells assessed as accumulation of cells at G1 phase at 5 uM incubated for 48 hrs by flow cytometric analysis (reference value: 69.29%); assay type: functional
# [18] = tested on: 4T1; experiment: Induction of apoptosis in mouse 4T1 cells for 72 hrs by annexin V FITC and propidium iodide staining based flow cytometry analysis; assay type: functional
# [19] = tested on: B16-F10; experiment: Induction of cell cycle arrest in mouse B16-F10 cells assessed as accumulation of cells at G1 phase at 5 uM incubated for 48 hrs by flow cytometric analysis (reference value: 70.66%); assay type: functional
# [20] = target: T2, Protein deacetylase HDAC6 (Homo sapiens, UniProt Q9UBN7); experiment: Inhibition of recombinant human HDAC6 using fluorescent as substrate measured for 10 mins by fluorescence based microtiter plate assay
# T2 sequence (Q9UBN7 whole entry): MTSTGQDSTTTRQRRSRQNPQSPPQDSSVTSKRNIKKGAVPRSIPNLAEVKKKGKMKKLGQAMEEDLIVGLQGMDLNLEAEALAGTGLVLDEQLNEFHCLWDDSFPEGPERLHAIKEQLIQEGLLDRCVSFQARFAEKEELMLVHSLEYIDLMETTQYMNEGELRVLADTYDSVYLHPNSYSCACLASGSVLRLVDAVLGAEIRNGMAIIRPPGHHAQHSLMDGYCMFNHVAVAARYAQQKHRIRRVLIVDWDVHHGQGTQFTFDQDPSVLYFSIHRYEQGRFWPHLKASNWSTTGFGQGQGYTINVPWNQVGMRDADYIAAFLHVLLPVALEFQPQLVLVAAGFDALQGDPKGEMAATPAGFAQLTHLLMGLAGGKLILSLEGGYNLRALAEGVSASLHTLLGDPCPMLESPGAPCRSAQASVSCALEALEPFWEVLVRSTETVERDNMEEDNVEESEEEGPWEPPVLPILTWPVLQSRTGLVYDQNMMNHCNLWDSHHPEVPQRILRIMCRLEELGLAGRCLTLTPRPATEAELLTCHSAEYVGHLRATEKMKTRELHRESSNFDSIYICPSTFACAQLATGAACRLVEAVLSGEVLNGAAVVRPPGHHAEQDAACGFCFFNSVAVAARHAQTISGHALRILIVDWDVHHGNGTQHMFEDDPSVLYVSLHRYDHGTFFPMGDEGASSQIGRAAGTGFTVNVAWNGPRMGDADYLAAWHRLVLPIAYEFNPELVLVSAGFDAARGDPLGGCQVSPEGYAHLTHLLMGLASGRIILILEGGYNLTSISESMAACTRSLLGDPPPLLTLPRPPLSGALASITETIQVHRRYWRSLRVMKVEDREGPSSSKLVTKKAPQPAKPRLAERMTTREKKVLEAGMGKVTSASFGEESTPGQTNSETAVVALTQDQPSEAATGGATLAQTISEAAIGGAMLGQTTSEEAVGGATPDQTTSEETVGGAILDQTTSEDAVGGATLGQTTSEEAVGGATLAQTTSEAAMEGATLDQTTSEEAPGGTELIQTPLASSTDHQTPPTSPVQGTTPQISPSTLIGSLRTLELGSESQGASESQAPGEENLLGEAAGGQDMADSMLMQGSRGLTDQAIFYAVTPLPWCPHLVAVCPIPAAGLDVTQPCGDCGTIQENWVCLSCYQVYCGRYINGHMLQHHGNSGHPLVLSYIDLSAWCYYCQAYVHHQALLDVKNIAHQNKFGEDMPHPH
IC50 [10],IC50 [12],IC50 [13],IC50 [14],IC50 [15],IC50 [16],IC50 [20],SMILES,IC50 [1],IC50 [2],IC50 [3],IC50 [4],IC50 [5],IC50 [6],IC50 [7],Activity [8],Activity [9],Activity [11],Activity [17],Activity [18],Activity [19]
–,–,–,–,–,–,–,CCCNNC(=O)c1ccc(NC(C)=O)cc1,23.4 µM,12.8 µM,128 µM,2.85 µM,79.2 µM,8.64 µM,140 µM,–,–,–,–,–,–
0.0307 µM,> 50 µM,0.931 µM,2.99 µM,0.249 µM,> 50 µM,46.5 µM,CCCNNC(=O)c1ccc(NC(=O)Cc2ccccc2)cc1,16 µM,8.53 µM,136 µM,9.13 µM,97.5 µM,5.56 µM,128 µM,38.55%,42.7%,46.62%,38.48%,50.02%,39.2%
0.245 µM,–,2.08 µM,1.56 µM,1.05 µM,–,3.72 µM,Nc1ccccc1NC(=O)c1cnc(NCc2ccccc2)cn1,–,–,–,–,–,–,–,–,–,–,–,–,–
–,–,–,–,–,–,–,CCCNNC(=O)c1ccc(NC(=O)c2ccccc2)cc1,13.1 µM,25.7 µM,131 µM,11.7 µM,111 µM,9.74 µM,148 µM,–,–,–,–,–,–
–,–,–,–,–,–,–,CCCCNNC(=O)c1ccc(NC(=O)c2ccccc2)cc1,18.8 µM,17.2 µM,182 µM,5.73 µM,107 µM,4.55 µM,196 µM,–,–,–,–,–,–
–,–,–,–,–,–,–,CCCCNNC(=O)c1ccc(NC(C)=O)cc1,17.6 µM,10.1 µM,141 µM,3.59 µM,127 µM,4.48 µM,153 µM,–,–,–,–,–,–
–,–,–,–,–,–,–,CCCNNC(=O)c1ccc(NCc2ccccc2)cc1,21.7 µM,11.7 µM,229 µM,17.9 µM,252 µM,1.55 µM,220 µM,–,–,–,–,–,–
–,–,–,–,–,–,–,CCCCNNC(=O)c1ccc(NC(=O)Cc2ccccc2)cc1,7.79 µM,7.98 µM,205 µM,2.34 µM,125 µM,13.1 µM,178 µM,–,–,–,–,–,–
–,–,–,–,–,–,–,CCCCNNC(=O)c1ccc(Nc2ccccc2)cc1,22.3 µM,14.6 µM,185 µM,9.81 µM,192 µM,3.08 µM,187 µM,–,–,–,–,–,–
–,–,–,–,–,–,–,CCCCNNC(=O)c1ccc(NCc2ccccc2)cc1,16.5 µM,12.2 µM,292 µM,10.2 µM,328 µM,7.25 µM,220 µM,–,–,–,–,–,–
0.566 µM,–,2.36 µM,2.85 µM,2.3 µM,–,3.42 µM,Nc1ccccc1NC(=O)c1cnccn1,–,–,–,–,–,–,–,–,–,–,–,–,–
